Test results from patent US11207325B2, “Triazolopyrimidine compounds and uses thereof” (Novartis AG, priority 2014, dated 2021).

Test system: H3K27 methylation in G401 cell
Test: ELISA (H3K27 methylation) assay
Type: cell-based
Conditions: Homo sapiens, G-401; ELISA Qualified assay (H3K27 methylation); read-out: (c) IC50 (μM), ELISA Qualified
Description: ELISA (H3K27 Methylation) Assay

| SMILES | IC50 [µM] |
| --- | --- |
| CN(C)Cc1ccc(-c2cnc(NCc3cccc4c3CCO4)n3cnnc23)cc1 [Example 11, N-((2,3-dihydrobenzofuran-4-yl)methyl)-8-(4-((dimethylamino)methyl)phenyl)-[1,2,4]triazolo[4,3-c]pyrimidin-5-amine] | 0.0144 |
| CC(c1ccc(-c2cnc(NCc3cccc4c3CCO4)n3cnnc23)cc1)N1CCCC1 (stereo not drawn) [Example 14, N-((2,3-dihydrobenzofuran-4-yl)methyl)-8-(4-(1-(pyrrolidin-1-yl)ethyl)phenyl)-[1,2,4]triazolo[4,3-c]pyrimidin-5-amine] | 0.0274 |
| CN(C)S(=O)(=O)c1ccc(-c2cnc(NCc3cccc4c3CCO4)n3cnnc23)cc1 [Example 15, 4-(5-(((2,3-dihydrobenzofuran-4-yl)methyl)amino)-[1,2,4]triazolo[4,3-c]pyrimidin-8-yl)-N,N-dimethylbenzenesulfonamide] | 0.0198 |
| c1cncc(-c2cnc(NCc3cccc4c3CCO4)n3cnnc23)c1 [Example 16, N-((2,3-dihydrobenzofuran-4-yl)methyl)-8-(pyridin-3-yl)-[1,2,4]triazolo[4,3-c]pyrimidin-5-amine] | 0.0604 |
| CN1CCN(c2ccc(-c3cnc(NCc4cccc5c4CCO5)n4cnnc34)cn2)CC1 [Example 20, N-((2,3-dihydrobenzofuran-4-yl)methyl)-8-(6-(4-methylpiperazin-1-yl)pyridin-3-yl)-[1,2,4]triazolo[4,3-c]pyrimidin-5-amine] | 0.0783 |
| CN(C)Cc1ccc(-c2cnc(NCc3c(F)ccc4c3CCO4)n3cnnc23)cc1 [Example 23, 8-(4-((dimethylamino)methyl)phenyl)-N-((5-fluoro-2,3-dihydrobenzofuran-4-yl)methyl)-[1,2,4]triazolo[4,3-c]pyrimidin-5-amine] | 0.0424 |
| CS(=O)(=O)c1ccc(-c2cnc(NCc3cccc4c3CCO4)n3cnnc23)c(F)c1 [Example 26, N-((2,3-dihydrobenzofuran-4-yl)methyl)-8-(2-fluoro-4-(methylsulfonyl)phenyl)-[1,2,4]triazolo[4,3-c]pyrimidin-5-amine] | 0.0448 |
| CS(=O)(=O)c1cccc(-c2cnc(NCc3cccc4c3CCO4)n3cnnc23)c1 [Example 27, N-((2,3-dihydrobenzofuran-4-yl)methyl)-8-(3-(methylsulfonyl)phenyl)-[1,2,4]triazolo[4,3-c]pyrimidin-5-amine] | 0.365 |
| CS(=O)(=O)c1ccc(-c2cnc(NCc3cccc4c3CCO4)n3cnnc23)cn1 [Example 28, N-((2,3-dihydrobenzofuran-4-yl)methyl)-8-(6-(methylsulfonyl)pyridin-3-yl)-[1,2,4]triazolo[4,3-c]pyrimidin-5-amine] | 0.415 |
| Cc1nn(C)cc1-c1cnc(NCc2cccc3c2CCO3)n2cnnc12 [Example 30, N-((2,3-dihydrobenzofuran-4-yl)methyl)-8-(1,3-dimethyl-1H-pyrazol-4-yl)-[1,2,4]triazolo[4,3-c]pyrimidin-5-amine] | 0.069 |
| Fc1ccccc1-c1cnc(NCc2cccc3c2CCO3)n2cnnc12 [Example 31, N-((2,3-dihydrobenzofuran-4-yl)methyl)-8-(2-fluorophenyl)-[1,2,4]triazolo[4,3-c]pyrimidin-5-amine] | 0.0298 |
| CS(=O)(=O)Nc1ccc(-c2cnc(NCc3cccc4c3CCO4)n3cnnc23)cc1F [Example 33, N-(4-(5-(((2,3-dihydrobenzofuran-4-yl)methyl)amino)-[1,2,4]triazolo[4,3-c]pyrimidin-8-yl)-2-fluorophenyl)methanesulfonamide] | 0.297 |
| OCCn1cc(-c2cnc(NCc3cccc4c3CCO4)n3cnnc23)cn1 [Example 34, 2-(4-(5-(((2,3-dihydrobenzofuran-4-yl)methyl)amino)-[1,2,4]trizaolo[4,3-c]pyrimidin-8-yl)-1H-pyrazol-1-yl)ethanol] | 1.95 |
| Cc1cc(-c2cnc(NCc3cccc4c3CCO4)n3cnnc23)cnc1N1CCN(C)CC1 [Example 36, N-((2,3-dihydrobenzofuran-4-yl)methyl)-8-(5-methyl-6-(4-methylpiperazin-1-yl)pyridin-3-yl)-[1,2,4]triazolo[4,3-c]pyrimidin-5-amine] | 0.0683 |
| CS(=O)(=O)Nc1ccc(-c2cnc(NCc3c(F)ccc4c3CCO4)n3cnnc23)cc1F [Example 39, N-(2-fluoro-4-(5-(((5-fluoro-2,3-dihydrobenzofuran-4-yl)methyl)amino)-[1,2,4]triazolo[4,3-c]pyrimidin-8-yl)phenyl)methanesulfonamide] | 0.0227 |
| CN(C)C(=O)c1ccc(-c2cnc(NCc3cccc4c3CCO4)n3cnnc23)cc1 [Example 42, 4-(5-(((2,3-dihydrobenzofuran-4-yl)methyl)amino)-[1,2,4]triazolo[4,3-c]pyrimidin-8-yl)-N,N-dimethylbenzamide] | 0.22 |
| CN(C)C(=O)c1cccc(-c2cnc(NCc3cccc4c3CCO4)n3cnnc23)c1 [Example 43, 3-(5-(((2,3-dihydrobenzofuran-4-yl)methyl)amino)-[1,2,4]triazolo[4,3-c]pyrimidin-8-yl)-N,N-dimethylbenzamide] | 0.247 |
| Fc1ccc2c(c1CNc1ncc(-c3cccnc3)c3nncn13)CCO2 [Example 44, N-((5-fluoro-2,3-dihydrobenzofuran-4-yl)methyl)-8-(pyridin-3-yl)-[1,2,4]triazolo[4,3-c]pyrimidin-5-amine] | 0.0097 |
| Fc1ccc2c(c1CNc1ncc(-c3ccncc3)c3nncn13)CCO2 [Example 45, N-((5-fluoro-2,3-dihydrobenzofuran-4-yl)methyl)-8-(pyridin-4-yl)-[1,2,4]triazolo[4,3-c]pyrimidin-5-amine] | 0.0086 |
| CC(c1ccc(-c2cnc(NCc3c(F)ccc4c3CCO4)n3cnnc23)cc1)N1CCCC1 (stereo not drawn) [Example 46, N-((5-fluoro-2,3-dihydrobenzofuran-4-yl)methyl)-8-(4-(1-(pyrrolidin-1-yl)ethyl)phenyl)-[1,2,4]triazolo[4,3-c]pyrimidin-5-amine] | 0.0048 |
| Fc1ccncc1-c1cnc(NCc2c(F)ccc3c2CCO3)n2cnnc12 [Example 47, N-((5-fluoro-2,3-dihydrobenzofuran-4-yl)methyl)-8-(4-fluoropyridin-3-yl)-[1,2,4]-triazolo[4,3-c]pyrimidin-5-amine] | 0.0103 |
| Nc1ccc(-c2cnc(NCc3cccc4c3CCO4)n3cnnc23)cn1 [Example 48, 8-(6-aminopyridin-3-yl)-N-((2,3-dihydrobenzofuran-4-yl)methyl)-[1,2,4]triazolo[4,3-c]pyrimidin-5-amine] | 0.261 |
| Cc1cc(-c2cnc(NCc3cccc4c3CCO4)n3cnnc23)ccc1C(=O)N(C)C [Example 49, 4-(5-(((2,3-dihydrobenzofuran-4-yl)methyl)amino)-[1,2,4]triazolo[4,3-c]pyrimidin-8-yl)-N,N,2-trimethylbenzamide] | 0.366 |

Further lines, results first:

| IC50 [µM] | SMILES |
| --- | --- |
| 0.0176 | CS(=O)(=O)c1ccc(-c2cnc(NCc3cccc4c3CCO4)n3cnnc23)cc1 [Example 12, N-((2,3-dihydrobenzofuran-4-yl)methyl)-8-(4-(methylsulfonyl)phenyl)-[1,2,4]triazolo[4,3-c]pyrimidin-5-amine] |
| 0.139 | c1ccc(-c2cnc(NCc3cccc4c3CCO4)n3cnnc23)cc1 [Example 13, N-((2,3-dihydrobenzofuran-4-yl)methyl)-8-phenyl-[1,2,4]triazolo[4,3-c]pyrimidin-5-amine] |
| 0.0401 | CS(=O)(=O)Nc1ccc(-c2cnc(NCc3cccc4c3CCO4)n3cnnc23)cc1 [Example 19, N-(4-(5-(((2,3-dihydrobenzofuran-4-yl)methyl)amino)-[1,2,4]triazolo[4,3-c]pyrimidin-8-yl)phenyl)methanesulfonamide] |
| 0.15 | COc1ccc(-c2cnc(NCc3cccc4c3CCO4)n3cnnc23)cn1 [Example 21, N-((2,3-dihydrobenzofuran-4-yl)methyl)-8-(6-methoxypyridin-3-yl)-[1,2,4]triazolo[4,3-c]pyrimidin-5-amine] |
| 0.162 | Cc1nn(C)c(C)c1-c1cnc(NCc2cccc3c2CCO3)n2cnnc12 [Example 24, N-((2,3-dihydrobenzofuran-4-yl)methyl)-8-(1,3,5-trimethyl-1H-pyrazol-4-yl)-[1,2,4]triazolo[4,3-c]pyrimidin-5-amine] |
| 0.406 | Cn1cc(-c2cnc(NCc3cccc4c3CCO4)n3cnnc23)cn1 [Example 25, N-((2,3-dihydrobenzofuran-4-yl)methyl)-8-(1-methyl-1H-pyrazol-4-yl)-[1,2,4]triazolo[4,3-c]pyrimidin-5-amine] |
| 0.214 | O=S(=O)(c1ccc(-c2cnc(NCc3cccc4c3CCO4)n3cnnc23)cc1)C1CCNCC1 [Example 29, N-((2,3-dihydrobenzofuran-4-yl)methyl)-8-(4-(piperidin-4-ylsulfonyl)phenyl)-[1,2,4]triazolo[4,3-c]pyrimidin-5-amine] |
| 0.115 | Clc1ccccc1-c1cnc(NCc2cccc3c2CCO3)n2cnnc12 [Example 32, 8-(2-chlorophenyl)-N-((2,3-dihydrobenzofuran-4-yl)methyl)-[1,2,4]triazolo[4,3-c]pyrimidin-5-amine] |
| 0.0334 | CN(C)CCc1ccc(-c2cnc(NCc3cccc4c3CCO4)n3cnnc23)cc1 [Example 35, N-((2,3-dihydrobenzofuran-4-yl)methyl)-8-(4-(2-(dimethylamino)ethyl)phenyl)-[1,2,4]triazolo[4,3-c]pyrimidin-5-amine] |
| 0.0134 | CS(=O)(=O)c1ccc(-c2cnc(NCc3c(F)ccc4c3CCO4)n3cnnc23)cc1 [Example 37, N-((5-fluoro-2,3-dihydrobenzofuran-4-yl)methyl)-8-(4-(methylsulfonyl)phenyl)-[1,2,4]triazolo[4,3-c]pyrimidin-5-amine] |
| 0.202 | OCCOc1ccc(-c2cnc(NCc3cccc4c3CCO4)n3cnnc23)cc1 [Example 38, 2-(4-(5-(((2,3-dihydrobenzofuran-4-yl)methyl)amino)-[1,2,4]triazolo[4,3-c]pyrimidin-8-yl)phenoxy)ethanol] |
| 1.34 | O=S(=O)(NCCO)c1ccc(-c2cnc(NCc3cccc4c3CCO4)n3cnnc23)cc1 [Example 40] |
| 0.375 | O=C(c1ccc(-c2cnc(NCc3cccc4c3CCO4)n3cnnc23)cc1)N1CCNCC1 [Example 41, (4-(5-(((2,3-dihydrobenzofuran-4-yl)methyl)amino)-[1,2,4]triazolo[4,3-c]pyrimidin-8-yl)phenyl)(piperazin-1-yl)methanone] |
